The source of these data is US6723741B2, “Benzimidazoles and benzothiazoles and uses thereof” (Synaptic Pharmaceutical Corporation, priority 1996, dated 2004).

Usually EC50 stands for the concentration at which the effect is half-maximal.

Test [1] has as its target T1, human α2A adrenergic receptor (Homo sapiens, UniProt P08913).
T1 sequence (P08913 1-465): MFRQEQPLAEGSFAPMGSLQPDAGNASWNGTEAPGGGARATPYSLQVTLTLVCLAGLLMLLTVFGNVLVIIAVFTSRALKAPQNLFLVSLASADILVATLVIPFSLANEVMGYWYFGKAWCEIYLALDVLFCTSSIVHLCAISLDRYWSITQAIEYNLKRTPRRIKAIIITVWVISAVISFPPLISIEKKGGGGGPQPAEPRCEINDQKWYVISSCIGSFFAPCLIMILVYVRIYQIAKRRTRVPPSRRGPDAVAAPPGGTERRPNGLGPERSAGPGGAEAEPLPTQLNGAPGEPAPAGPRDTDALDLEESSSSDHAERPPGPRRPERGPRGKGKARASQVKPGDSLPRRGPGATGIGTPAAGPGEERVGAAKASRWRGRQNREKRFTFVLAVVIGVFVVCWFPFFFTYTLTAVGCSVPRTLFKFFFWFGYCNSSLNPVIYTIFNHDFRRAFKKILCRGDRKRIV
Briefly: Radioligand binding assay, [3H]rauwolscine competition. Also noted: expressed in transfected cells.

For test [2], the target named is T1, human α2A adrenergic receptor. In words: Agonist activity: inhibition of forskolin-stimulated cAMP synthesis. To be noted: for I.A (Intrinsic Activity) Alpha-2 A: maximum activity relative to maximum activity induced by norepinephrine, human α2A.

Where two headings read alike, the source gives them in different places.

`Brc1cc(NC2=NCCN2)cc2cc[nH]c12` [Example 2, 7-Bromo-5-(2-imidazolin-2-ylamino)indole] showed a Ki in test [1] of 0.724 nM. Besides, in test [2], the EC50 is 0.437 nM and the “I.A (Intrinsic Activity) Alpha-2 A” value was determined as 0.46.
In turn, `c1nc2cc(NC3=NCCN3)ccc2s1` [Example 13, 5-(2-Imidazolin-2-ylamino)benzothiazole] gave a Ki in test [1] of 3.72 nM. Besides, in test [2], the EC50 is 12.3 nM and the “I.A (Intrinsic Activity) Alpha-2 A” value was determined as 0.98.
On to `c1nc2ccc(NC3=NCCN3)cc2s1` [Example 14, 6-(2-Imidazolin-2-ylamino)benzothiazole], for which the “I.A (Intrinsic Activity) Alpha-2 A” value in test [2] was 0.51.
Take `c1nc2ccc(NC3=NCCS3)cc2s1` [Example 15, 6-(2-Thiazolin-2-ylamino)benzothiazole]: in test [1] (cloned human α2A, LM(tk-) cell membranes, [3H]rauwolscine, read-out: pKi Alpha-2 A (converted)), the Ki is 115 nM. In test [2], the EC50 was 3090 nM and the “I.A (Intrinsic Activity) Alpha-2 A” value is 0.58.
